Data on eleven compounds can be found in BindingDB's records for doi:10.1016/j.bmcl.2009.04.079 (China Pharmaceutical University, 2009).

Where a name gives a salt, the structure may show the parent alone.

This assay in a line: Inhibition of NHE1-mediated rat platelet swelling.
`COc1ccc(CN2CCN(Cc3ccc(C(=O)NC(=N)N)cc3)CC2)c(OC)c1OC` [N-(diaminomethylene)-4-((4-(2,3,4-trimethoxybenzyl)piperazin-1-yl)methyl)benzamide hydrochloride]: the IC50 – broadly, the concentration at which inhibition is half-maximal – came to 36.4 nM.

`COc1ccc(CN2CCN(Cc3cccc(C(=O)NC(=N)N)c3)CC2)c(OC)c1OC` [N-(diaminomethylene)-3-((4-(2,3,4-trimethoxybenzyl)piperazin-1-yl)methyl)benzamide hydrochloride] came in with an IC50 of 36.5 nM. The IC50 values of the last two compounds are within 1.5-fold of each other.

In turn, `COc1ccc(CN2CCN(C(C)c3ccc(C(=O)NC(=N)N)cc3)CC2)c(OC)c1OC` (stereo unspecified) [N-(diaminomethylene)-4-(1-(4-(2,3,4-trimethoxybenzyl)piperazin-1-yl)ethyl)benzamide hydrochloride] yielded an IC50 of 40.5 nM.

As for `COc1ccc(CN2CCN(Cc3ccc(C(=O)NC(=N)N)cc3Br)CC2)c(OC)c1OC` [3-bromo-N-(diaminomethylene)-4-((4-(2,3,4-trimethoxybenzyl)piperazin-1-yl)methyl)benzamide hydrochloride], the IC50 is 248 nM.

In turn, `COc1ccc(CN2CCN(Cc3ccc(C(=O)NC(=N)N)cc3S(N)(=O)=O)CC2)c(OC)c1OC` [N-(diaminomethylene)-3-sulfamoyl-4-((4-(2,3,4-trimethoxybenzyl)piperazin-1-yl)methyl)benzamide hydrochloride] registered an IC50 of 11.5 nM.

With `CCCNS(=O)(=O)c1cc(C(=O)NC(=N)N)ccc1CN1CCN(Cc2ccc(OC)c(OC)c2OC)CC1` [N-(diaminomethylene)-3-(N-propylsulfamoyl)-4-((4-(2,3,4-trimethoxybenzyl)piperazin-1-yl)methyl)benzamide hydrochloride], inhibition was half-maximal at 1150 nM (IC50).

As to `COc1ccc(CN2CCN(Cc3cc(C(=O)NC(=N)N)ccc3[N+](=O)[O-])CC2)c(OC)c1OC` [N-(diaminomethylene)-4-nitro-3-((4-(2,3,4-trimethoxybenzyl)piperazin-1-yl)methyl)benzamide hydrochloride], the IC50 is 14.2 nM.

`COc1ccc(CN2CCN(Cc3ccccc3C(=O)NC(=N)N)CC2)c(OC)c1OC` [N-(diaminomethylene)-2-((4-(2,3,4-trimethoxybenzyl)piperazin-1-yl)methyl)benzamide hydrochloride] came in with a concentration for half-maximal inhibition (IC50) of 11.1 nM.

In the case of `COc1ccc(CN2CCN(Cc3ccc(C(=O)NC(=N)N)cc3[N+](=O)[O-])CC2)c(OC)c1OC`, half-maximal inhibition (IC50) was put at 3.6 nM.

In turn, `CNS(=O)(=O)c1cc(C(=O)NC(=N)N)ccc1CN1CCN(Cc2ccc(OC)c(OC)c2OC)CC1` [N-(diaminomethylene)-3-(N-methylsulfamoyl)-4-((4-(2,3,4-trimethoxybenzyl)piperazin-1-yl)methyl)benzamide hydrochloride] had an IC50 of 15 nM.

Compound `COc1ccc(CN2CCN(C(C)c3ccc(C(=O)NC(=N)N)cc3[N+](=O)[O-])CC2)c(OC)c1OC` (stereo unspecified) [N-(diaminomethylene)-3-nitro-4-(1-(4-(2,3,4-trimethoxybenzyl)piperazin-1-yl)ethyl)benzamide hydrochloride] gave an IC50 of 18.7 nM.
